Here are results for 8 compounds from PMC9832378 (Drug Metabolism and Disposition, 2023).

For data set [1], the system named is COX formation in pooled HLMs. The settings on record: 500 μM COT, vs control without inhibitor.
The conditions of data set [2]: urine of Caucasian smokers; ref Rangiah et al., 2011; cited from earlier work.
A further data set has as its target CYP2C19 (Homo sapiens, UniProt P33261). The conditions noted are these: UM2C19/EM2C19 genotype groups compared with PM2C19 genotype group; ref Li-Wan-Po et al., 2010; cited from earlier work.
A short description of data set [3]: Kinetic analysis of COX formation in pooled HLMs. The class given is in vitro ADME, human. The conditions noted are these: pooled HLMs from 20 individuals.
The target in a further data set is CYP2E1 (Homo sapiens, UniProt P05181). The class given is in vitro ADME. The conditions noted are these: microsomes of HEK293 cells overexpressing CYP2E1.
In data set [4] the target is T1, CYP2B6 (Homo sapiens, UniProt P20813).
T1 sequence (P20813 1-491): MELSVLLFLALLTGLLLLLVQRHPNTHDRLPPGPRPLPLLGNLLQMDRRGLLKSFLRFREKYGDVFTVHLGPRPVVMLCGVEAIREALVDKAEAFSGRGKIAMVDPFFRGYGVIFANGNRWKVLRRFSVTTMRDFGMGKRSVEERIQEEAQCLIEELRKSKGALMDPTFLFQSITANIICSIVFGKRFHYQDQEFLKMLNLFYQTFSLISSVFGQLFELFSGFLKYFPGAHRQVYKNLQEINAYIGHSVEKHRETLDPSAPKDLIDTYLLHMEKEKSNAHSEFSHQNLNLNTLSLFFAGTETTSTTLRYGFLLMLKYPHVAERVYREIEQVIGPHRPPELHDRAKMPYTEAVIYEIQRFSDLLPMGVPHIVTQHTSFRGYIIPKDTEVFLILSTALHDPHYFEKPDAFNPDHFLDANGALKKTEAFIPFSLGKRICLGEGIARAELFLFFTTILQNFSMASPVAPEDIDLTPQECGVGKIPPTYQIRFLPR
The class given is in vitro ADME. The settings on record: microsomes of HEK293 cells overexpressing CYP2B6.

For data set [5] the following is noted: ref Jarvis et al., 1988; cited from earlier work.
Another data set has as its target CYP3A4 (Homo sapiens, UniProt P08684). The class given is in vitro ADME. The settings on record: microsomes of HEK293 cells overexpressing CYP3A4.
The next data set has as its system P450. The settings on record: rat, in vivo; cited from earlier work.
The next data set relates to CYP2A6. The conditions noted are these: formation of COT from nicotine, ref Yamanaka et al., 2005; cited from earlier work.
Data set [6] has as its system CYP2B6. The settings on record: formation of COT from nicotine, ref Yamanaka et al., 2005; cited from earlier work.
The conditions of data set [7]: in smokers; no reference given; cited from earlier work.

Read-outs that look alike come from different tables or passages of the source.

Sequence of CYP2C19 (P33261 whole entry): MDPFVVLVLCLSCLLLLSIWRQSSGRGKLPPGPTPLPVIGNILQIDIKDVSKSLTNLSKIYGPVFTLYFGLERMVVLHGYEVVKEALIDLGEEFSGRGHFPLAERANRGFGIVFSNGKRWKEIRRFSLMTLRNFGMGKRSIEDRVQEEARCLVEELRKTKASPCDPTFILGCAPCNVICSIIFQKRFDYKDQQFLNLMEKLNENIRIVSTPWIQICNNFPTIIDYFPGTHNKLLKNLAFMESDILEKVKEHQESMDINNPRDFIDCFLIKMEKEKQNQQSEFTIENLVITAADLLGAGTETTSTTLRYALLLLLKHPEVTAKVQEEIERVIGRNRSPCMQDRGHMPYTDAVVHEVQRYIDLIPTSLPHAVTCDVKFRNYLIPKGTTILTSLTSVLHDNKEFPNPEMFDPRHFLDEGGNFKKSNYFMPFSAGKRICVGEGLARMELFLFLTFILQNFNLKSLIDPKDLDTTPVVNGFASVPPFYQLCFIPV
Sequence of CYP3A4 (P08684 whole entry): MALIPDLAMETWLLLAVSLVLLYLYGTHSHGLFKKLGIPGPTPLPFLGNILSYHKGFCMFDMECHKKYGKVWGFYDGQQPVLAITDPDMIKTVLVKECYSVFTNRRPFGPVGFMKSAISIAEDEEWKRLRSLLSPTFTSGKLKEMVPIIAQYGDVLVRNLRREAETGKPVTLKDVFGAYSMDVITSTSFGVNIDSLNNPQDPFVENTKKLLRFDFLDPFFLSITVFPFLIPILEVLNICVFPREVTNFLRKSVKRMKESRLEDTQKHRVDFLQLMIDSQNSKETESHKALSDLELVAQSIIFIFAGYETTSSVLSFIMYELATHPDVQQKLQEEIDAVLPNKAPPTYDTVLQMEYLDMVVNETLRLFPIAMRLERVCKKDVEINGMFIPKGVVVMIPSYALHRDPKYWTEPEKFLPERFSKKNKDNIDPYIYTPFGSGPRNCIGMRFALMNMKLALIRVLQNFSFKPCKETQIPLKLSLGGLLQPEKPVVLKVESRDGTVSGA
Sequence of CYP2E1 (P05181 whole entry): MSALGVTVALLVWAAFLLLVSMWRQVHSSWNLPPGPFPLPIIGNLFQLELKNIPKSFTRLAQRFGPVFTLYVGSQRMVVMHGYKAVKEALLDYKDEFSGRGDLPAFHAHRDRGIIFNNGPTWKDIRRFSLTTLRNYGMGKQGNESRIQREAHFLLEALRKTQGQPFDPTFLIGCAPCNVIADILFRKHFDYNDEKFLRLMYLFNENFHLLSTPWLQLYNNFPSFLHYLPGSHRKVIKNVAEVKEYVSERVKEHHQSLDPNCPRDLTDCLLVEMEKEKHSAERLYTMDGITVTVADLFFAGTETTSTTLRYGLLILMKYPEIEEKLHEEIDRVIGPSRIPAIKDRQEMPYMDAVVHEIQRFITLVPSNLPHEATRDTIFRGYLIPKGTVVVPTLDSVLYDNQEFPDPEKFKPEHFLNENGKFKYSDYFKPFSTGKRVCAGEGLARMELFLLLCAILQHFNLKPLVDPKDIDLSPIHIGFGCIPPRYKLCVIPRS

With `N[C@@H]1C[C@H]1c1ccccc1` (racemic) [tranylcypromine], in data set [1] (1 µM inhibitor), the “decrease in COX formation” value came out at 15%.
For `O=C1CCC(c2cccnc2)N1CO` (stereo not shown) [N-(hydroxyl-methyl) norcotinine], the “average share of cotinine metabolites in urine” value in data set [2] is 4%.
For the compound `COC(=O)[C@H](c1ccccc1Cl)N1CCc2sccc2C1` [clopidogrel], on CYP2C19, the increased enzyme efficacy is reported as 35%–40%. In addition, in data set [1] (10 µM inhibitor), the “decrease in COX formation” value worked out at 21%.
A word on the Km: it is the concentration of substrate that gives half-maximal velocity. One may read the Vmax as the top rate of the reaction or transport when substrate is in excess. As to `CN1C(=O)CC[C@H]1c1cccnc1` [cotinine], the Michaelis constant (Km) in data set [3] (COX formation from cotinine) came out at 550 ± 49 µM. The Vmax in [3] (COX formation) turned out to be 587 ± 26 pmol/min/mg. In addition, the Km at 30 min is greater than 10 mM at CYP2E1, 810 ± 24 µM at CYP2B6 [4] and greater than 10 mM at CYP3A4. In [5], the “half-life of elimination from plasma” value is 10 to 27 h.
Consider `CC(C)(C(=O)c1cccnc1)c1cccnc1` [metyrapone], for which the “effect on phenobarbital-induced increase of COX production” value with P450 is “negated”.
`CN1CCC[C@H]1c1cccnc1` [nicotine]: the results for the Km in the data set on CYP2A6 and with CYP2B6 [6] were 95 µM and 550 µM, respectively. Moreover, the “share of metabolism via formation of cotinine by CYP2A6” value in data set [7] is given as roughly 70%.
Consider `COc1ccc2[nH]c([S+]([O-])Cc3ncc(C)c(OC)c3C)nc2c1` (stereo not shown) [omeprazole], for which the increased enzyme efficacy on CYP2C19 is reported as 35%–40%.
As for `CCC1(c2ccccc2)C(=O)NC(=O)NC1=O` [phenobarbital], the “increase of COX production” value in the data set on P450 is recorded as “eightfold”.
